Test results as given in patent publication EP0049203A1, “Benzoxazolinones substituted in the 6-position by an amino-alcohol or amino-ketone chain, their preparation and their therapeutic use” (RIOM LABORATOIRES- C.E.R.M. (Société Anonyme), priority 1980, dated 1982).

Assays:
[1] = target: T1, récepteurs β1 de l'oreillette gauche de cobaye (Cavia porcellus, UniProt H0W3H1); test: Antagonism of the positive inotropic effect of isoprenaline on electrically stimulated isolated left atrium; conditions: β1, guinea-pig left atrium; for Kb: antagonism of isoprenaline, read-out: pA2 (converted)
T1 construct: l'oreillette gauche de cobaye stimulée électriquement; from tissue; host or cells: guinea pig left atrium, electrically stimulated
T1 sequence (H0W3H1 1-470): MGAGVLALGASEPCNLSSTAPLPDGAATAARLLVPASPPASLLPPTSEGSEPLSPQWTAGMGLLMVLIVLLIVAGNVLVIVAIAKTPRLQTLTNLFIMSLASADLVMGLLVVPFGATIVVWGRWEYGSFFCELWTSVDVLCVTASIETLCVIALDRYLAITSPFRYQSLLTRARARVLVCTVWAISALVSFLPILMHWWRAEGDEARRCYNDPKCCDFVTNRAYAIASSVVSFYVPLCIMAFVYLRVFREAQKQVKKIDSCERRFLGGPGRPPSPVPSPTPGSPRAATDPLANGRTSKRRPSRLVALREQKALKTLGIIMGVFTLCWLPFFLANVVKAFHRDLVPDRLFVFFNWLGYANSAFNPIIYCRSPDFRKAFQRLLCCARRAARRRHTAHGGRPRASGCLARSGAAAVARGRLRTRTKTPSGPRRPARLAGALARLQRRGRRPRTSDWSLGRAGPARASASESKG
Excerpt: (§1) L'activité pharmacologique des composés de l'invention a été révélée par recherche d'une interférence avec les récepteurs adrénergiques β1, β2 et α in vitro, conformément aux protocoles expérimentaux ci-après.
(§2) Récepteurs adrénergiques β1 : on recherche l'antagonisme de l'effet inotrope positif de l'isoprénaline sur les récepteurs β1 de l'oreillette gauche de cobaye stimulée électriquement.
(§3) Les résultats sont exprimés dans le tableau I par les paramètres usuels de pharmacologie moléculaire, selon les critères utilisés par Van Rossum [Arch. Int.

[2] = test system: Récepteurs adrénergiques α; test: Interference with noradrenaline-induced contraction (cumulative doses) of isolated vas deferens; conditions: rat vas deferens; for pA2: noradrenaline contraction; for INTERFERENCE AVEC LES RECEPTEURS ADRENERGIQUES α: result in words
Excerpt: as §1
Récepteurs adrénergiques α : on étudie l'interférence des composés de l'invention sur la contraction du vas déferens isolé du rat, provoquée par des doses cumulatives de noradrénaline.
as §3

[3] = target: T2, récepteurs adrénergiques β2 du muscle trachéal de cobaye (Cavia porcellus, UniProt Q8K4Z4); test: Antagonism of the bronchodilator effects of isoprenaline on isolated tracheal muscle; conditions: guinea-pig tracheal muscle; for Kb: β2, antagonism of isoprenaline, read-out: pA2 (converted); for INTERFERENCE AVEC LES RECEPTEURS ADRENERGIQUES β2: result in words
T2 construct: du muscle trachéal de cobaye; from tissue; host or cells: guinea pig tracheal muscle
T2 sequence (Q8K4Z4 whole entry): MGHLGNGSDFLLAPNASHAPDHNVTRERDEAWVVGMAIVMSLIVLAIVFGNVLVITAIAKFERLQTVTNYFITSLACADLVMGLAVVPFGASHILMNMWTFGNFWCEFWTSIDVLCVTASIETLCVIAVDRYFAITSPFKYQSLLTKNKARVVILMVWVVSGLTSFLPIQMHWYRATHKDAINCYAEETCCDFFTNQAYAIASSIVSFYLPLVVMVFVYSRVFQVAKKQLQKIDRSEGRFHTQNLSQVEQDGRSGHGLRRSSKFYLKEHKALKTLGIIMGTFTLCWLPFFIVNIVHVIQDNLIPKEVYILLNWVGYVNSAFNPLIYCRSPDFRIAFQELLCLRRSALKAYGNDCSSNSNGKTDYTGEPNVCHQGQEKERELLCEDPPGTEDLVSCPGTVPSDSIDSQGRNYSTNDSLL
Excerpt: as §1
Récepteurs adrénergiques β2 : on recherche l'antagonisme des effets bronchodilatateurs de l'isoprénaline sur les récepteurs p2 du muscle trachéal de cobaye.
as §3

[4] = test system: récepteurs β1 de l'oreillette gauche de cobaye; test: Antagonism of the positive inotropic effect of isoprenaline on electrically stimulated isolated left atrium; conditions: for cardiosélectivité: β1 versus β2, in words
Excerpt: as §1, §2, §3

[5] = test system: souris; test: Thermal stimulus analgesia test (Eddy and Leimbach); format: in vivo; conditions: Mus musculus, po; test de stimulus thermique; par voie orale chez la souris; read-out: DE 50 (dose qui augmente de 50 % le temps de réaction)
Method: Dans le test de stimulus thermique [selon EDDY N.B., LEIMBACH D.J. Pharmacol. Exp. Ther., 107, 385-393, (1953)J la DE 50 de ce composé ― qui représente la dose de produit qui augmente de 50 % le temps de réaction des animaux traités par rapport à celui du groupe des animaux de contrôle - est de 4,4 mg/kg par voie orale chez la souris.

[6] = test system: souris; test: Chemical stimulus analgesia test (Siegmund; abdominal cramps); format: in vivo; conditions: Mus musculus, po; test de stimulus chimique; par voie orale chez la souris; read-out: DE 50 (dose qui inhibe de 50 % le nombre de crampes abdominales)
Method: Dans le test de stimulus chimique [SIEGMUND E., CADMUS R. GO LU - Proc. Soc. Exp. Biol. Med. 95, 729-731, (1957)] la DE 50 de ce composé - qui représente la dose qui inhibe de 50 % le nombre de crampes abdominales par rapport à celui du groupe des animaux de contrôle - est de 9 mg/kg par voie orale chez la souris.

Row | Kb [1] | pD'2 [1] | INTERFERENCE AVEC LES RECEPTEURS ADRENERGIQUES β2 [3] | Compound | pA2 ([2]; α) | cardiosélectivité [4] | also measured
1 | 2.24 µM | – | – | COc1ccccc1N1CCN([C@@H](C)[C@H](O)c2ccc3c(c2)oc(=O)n3C)CC1 (relative stereo) [compound 27, Erythro 2-[4-(2-méthoxyphényl)pipéraziny] 1-(3-méthyl-2-benzoxazolinon-6-yl) propanol] | 6,14 ± 0,31 | – | pD'2 ([2]; α): 4,73 ± 0,38; Kb [3]: 20.9 µM
2 | 6.17 µM | 4 | Inactif | C[C@@H]([C@H](O)c1ccc2c(c1)oc(=O)n2C)N1CCN(c2ccc(F)cc2)CC1 (relative stereo) [compound 28] | – | importante, voire totale | INTERFERENCE AVEC LES RECEPTEURS ADRENERGIQUES α [2]: Inactif
3 | 2.95 µM | 4,50 ± 0,21 | Agoniste partiel | C[C@@H]([C@H](O)c1ccc2c(c1)oc(=O)n2C)N1CCC(Cc2ccccc2)CC1 (relative stereo) [compound 29] | – | – | –
4 | 3.98 µM | 3,8 | – | COc1ccccc1N1CCN(CC(=O)c2ccc3c(c2)oc(=O)n3C)CC1 [compound 9, 2 [4-(2-méthoxyphényl)pipérazinyl] 1-(3-méthyl 2-benzoxazolinon-6-yl) éthanone] | – | – | –
5 | 5.01 µM | – | – | Cn1c(=O)oc2cc(C(=O)CN3CCC(Cc4ccccc4)CC3)ccc21 [compound 13, 2-(4-benzyl-pipéridinyl) 1-(3-méthyl 2-benzoxazolinon-6-yl) éthanone] | – | – | –
6 | 6.31 µM | – | Inactif | NCC(O)c1ccc2[nH]c(=O)oc2c1 (stereo not drawn) [compound 16] | pA2 = 4,73 ± 0,52 | – | –
7 | 0.0347 µM | – | – | CC(C)NCC(O)c1ccc2[nH]c(=O)oc2c1 (stereo not drawn) [compound 18, 2-isopropylamino 1-(2-benzoxazolinon-6-yl) éthanol] | pA2 = 6,03 ± 0,43 | de faible intensité | Kb [3]: 0.776 µM
8 | 0.224 µM | – | – | CC(C)(C)NCC(O)c1ccc2[nH]c(=O)oc2c1 (stereo not drawn) [compound 19] | – | – | INTERFERENCE AVEC LES RECEPTEURS ADRENERGIQUES α [2]: Inactif; Kb [3]: 1.48 µM
9 | 2.82 µM | – | Agoniste partiel | COc1ccccc1N1CCN(CC(O)c2ccc3c(c2)oc(=O)n3C)CC1 (stereo not drawn) [compound 22] | pA2 = 5,7 ± 0,25 | – | –
10 | 2 µM | 4,2 | Inactif | Cn1c(=O)oc2cc(C(O)CN3CCC(Cc4ccccc4)CC3)ccc21 (stereo not drawn) [compound 25, 2-(4-benzylpipéradinyl) 1-(3-méthyl 2-benzoxazolinon-6-yl) éthanol] | – | importante, voire totale | –
11 | 3.98 µM | – | Inactif | O=c1[nH]c2ccc(C(O)CN3CCN(c4ccc(F)cc4)CC3)cc2o1 (stereo not drawn) [compound 30] | – | importante, voire totale | –
12 | – | – | – | Cn1c(=O)oc2cc(C(O)CN3CCN(c4cccc(C(F)(F)F)c4)CC3)ccc21 (stereo not drawn) [compound 31, 2-[4-(3-trifluorométhyl)phénylpipérazinyl] 1-(3-méthyl 2-benzoxazolinon-6-yl) éthanol] | – | – | ED50 [5]: 4.4 mg/kg; ED50 [6]: 9 mg/kg; activité sur les récepteurs adrénergiques ([4]; adrenergic receptors in general (β1, β2, α), in words): n'a pas une activité de même niveau que les autres composés de l'invention

Row | Compound | Kb [1] | pD'2 [1] | INTERFERENCE AVEC LES RECEPTEURS ADRENERGIQUES β2 [3] | pA2 ([2]; α) | cardiosélectivité [4] | also measured
13 | CC(C(=O)c1ccc2c(c1)oc(=O)n2C)N1CCN(c2ccc(F)cc2)CC1 (stereo not drawn) [compound 10] | 1.26 µM | 4,59 ± 0,61 | Agoniste partiel | pA2 = 5,3 ± 0,12 | – | –
